The values that follow come from patent US20260083704A1, “LXR MODULATORS WITH BICYCLIC CORE MOIETY FOR TREATING DYSLIPIDEMIAS” (OrsoBio, Inc., priority 2022, published 2026).

pEC50: −log10 of the molar value. Like-named read-outs stand apart in the source and are kept apart here.

The target of data set [1] is T1, LXRα (Homo sapiens, UniProt Q13133).
T1 construct: expressed in transfected cells; host or cells: HEK293
T1 sequence (Q13133 155-447): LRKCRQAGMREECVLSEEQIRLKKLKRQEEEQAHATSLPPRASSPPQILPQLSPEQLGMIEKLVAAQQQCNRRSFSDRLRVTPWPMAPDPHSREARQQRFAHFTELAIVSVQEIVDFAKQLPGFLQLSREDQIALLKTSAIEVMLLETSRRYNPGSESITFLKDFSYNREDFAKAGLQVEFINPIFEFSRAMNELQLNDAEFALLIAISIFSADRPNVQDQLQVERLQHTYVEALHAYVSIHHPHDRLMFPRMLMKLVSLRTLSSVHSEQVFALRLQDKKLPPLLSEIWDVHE
Briefly: LXR Gal4 reporter transient transfection assay (mammalian two-hybrid, HEK293), LXRα. Format: cell-based. The following applies: ligand-binding domain (LBD) of LXRα, HEK293; read-out: LBD-M2H Gal4α. The procedure: (§1) LXRα and LXRβ activity status was determined via detection of interaction with coactivator and corepressor proteins in mammalian two-hybrid experiments (M2H). For this, via transient transfection the full length (FL) proteins of LXRα (amino acids 1-447; NP005684; SEQ ID NO:1) or LXRβ-(amino acids 1-461; NP009052; SEQ ID NO:2) or the ligand-binding domains (LBD) of LXRα (amino acids 155-447 SEQ ID NO:3) or LXRβ (amino acids 156-461; SEQ ID NO:4) were expressed from pCMV-AD (Stratagene) as fusions to the transcriptional activation domain of NFkB. As cofactors, domains of either the steroid receptor coactivator 1 (SRC1; amino acids 552-887; SEQ ID NO:5) or of the corepressor NCoR (amino acids 1906-2312; NP006302; SEQ ID NO:6) were expressed as fusions to the DNA binding domain of the yeast transcription factor GAL4 (from pCMV-BD; Stratagene). Interaction was monitored via activation of a coexpressed Firefly Luciferase Reporter gene under control of a promoter containing repetitive GAL4 response elements (vector pFRLuc; Stratagene). Transfection efficiency was controlled via cotransfection of constitutively active pRL-CMV Renilla reniformis luciferase reporter (Promega). HEK293 cells were grown in minimum essential medium (MEM) with 2 mM L-glutamine and Earle's balanced salt solution supplemented with 8.3% fetal bovine serum, 0.1 mM non-essential amino acids, 1 mM sodium pyruvate, at 37° C. in 5% CO2. 3.5×10^4 cells/well were plated in 96-well cell culture plates in growth medium supplemented with 8.3% fetal bovine serum for 16-20 h to ˜90% confluency. For transfection, medium was taken off and LXR and cofactor expressing plasmids as well as the reporter plasmids are added in 30 μL OPTIMEM/well including polyethylene-imine (PEI) as vehicle. Typical amounts of plasmids transfected/well: pCMV-AD-LXR (5 ng), pCMV-BD-cofactor (5 ng), pFR-Luc (100 ng), pRL-CMV (0.5 ng). Compound stocks were prepared in DMSO, prediluted in MEM to a total volume of 120 μL, and added 4 h after addition of the transfection mixture (final vehicle concentration not exceeding 0.2%). Cells were incubated for additional 16 h, lysed for 10 min in 1×Passive Lysis Buffer (Promega) and Firefly and Renilla luciferase activities were measured sequentially in the same cell extract using buffers containing D-luciferine and coelenterazine, respectively. Measurements of luminescence were done in a BMG-luminometer.
(§2) The potencies of Compound 21/3 and its analog, Compound pre-6/3, against LXRα and LXRβ were evaluated in biochemical binding assays, cellular mammalian two-hybrid (M2H) interaction assays evaluating nuclear receptor co-repressor (NCOR) recruitment, and cellular reporter assays evaluating transcriptional activity (Table 5).

For data set [2], the target named is T2, LXRβ (Homo sapiens, UniProt P55055).
T2 construct: LXRβ (amino acids 156-461); expressed in transfected cells; host or cells: HEK293
T2 sequence (P55055 156-460): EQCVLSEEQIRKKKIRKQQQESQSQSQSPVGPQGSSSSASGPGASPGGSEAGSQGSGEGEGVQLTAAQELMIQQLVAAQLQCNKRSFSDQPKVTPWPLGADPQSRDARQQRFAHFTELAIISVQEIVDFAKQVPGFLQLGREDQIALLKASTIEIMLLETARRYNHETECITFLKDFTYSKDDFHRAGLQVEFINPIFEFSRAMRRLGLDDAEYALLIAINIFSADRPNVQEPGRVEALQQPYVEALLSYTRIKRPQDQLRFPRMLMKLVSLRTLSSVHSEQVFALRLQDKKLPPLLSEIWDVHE
Briefly: LXR Gal4 reporter transient transfection assay (mammalian two-hybrid, HEK293), LXRβ. Format: cell-based. The following applies: ligand-binding domain (LBD) of LXRβ, HEK293; read-out: LBD-M2H Gal4β. The method, boiled down: (§3)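 Mammalian two-hybrid read-out of LXR–coactivator (SRC1) or corepressor (NCoR) interaction: firefly luciferase under GAL4 response elements, normalised via Renilla co-transfection. LXRα/β full-length or LBD fusions expressed transiently in HEK293; compounds (final DMSO ≤0.2%) given 4 h after transfection for 16 h before lysis.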

The target in data set [3] is T3, GST-LXRβ ligand-binding domain (Homo sapiens, UniProt P55055).
T3 construct: amino acids 156-461; NP009052; made in house; host or cells: E. coli
T3 sequence (P55055 156-460 limits assumed): T2 sequence (P55055 156-460)
The data set can be described thus: TR-FRETβ activity assay (NCoA3 coactivator peptide recruitment). As to conditions: 1 μM 24(S)-25-epoxycholesterol prestimulation. Format: biochemical. The procedure, abridged:
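Inverse-agonist format, with LXR prestimulated by 1 μM 24(S)-25-epoxycholesterol in pH 6.8 Tris/HCl, 240 mM KCl, BSA and Triton. Ten concentrations from 50 μM to 0.002 μM were equilibrated 1 h at 4° C with 76 nM GST-LXRβ LBD and 400 nM biotin-NCoA3 peptide. Peptide recruitment detected by 665/615 nm TR-FRET.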

The target of data set [4] is T4, LXRα (Homo sapiens, UniProt Q13133).
T4 sequence (Q13133 1-447): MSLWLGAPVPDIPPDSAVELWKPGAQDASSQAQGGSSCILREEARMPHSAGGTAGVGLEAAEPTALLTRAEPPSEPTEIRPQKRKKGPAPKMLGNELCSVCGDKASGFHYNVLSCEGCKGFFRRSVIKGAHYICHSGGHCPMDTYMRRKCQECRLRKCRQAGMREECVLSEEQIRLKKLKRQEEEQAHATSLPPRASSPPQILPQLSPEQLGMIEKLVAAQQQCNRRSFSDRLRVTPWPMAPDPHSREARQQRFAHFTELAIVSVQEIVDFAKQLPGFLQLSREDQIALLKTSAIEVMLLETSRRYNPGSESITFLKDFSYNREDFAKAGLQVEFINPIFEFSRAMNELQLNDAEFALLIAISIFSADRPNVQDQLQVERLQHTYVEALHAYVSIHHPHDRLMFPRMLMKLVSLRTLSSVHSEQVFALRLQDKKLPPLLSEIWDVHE
The data set can be described thus: LXR Gal4 reporter transient transfection assay (mammalian two-hybrid, HEK293), LXRα. Format: cell-based. The following applies: full length (FL) LXRα, HEK293; read-out: FL-M2H Gal4α. More on the design: expressed in transfected cells; host or cells: HEK293. On the procedure:
as §1, §2

Data set [5] is described as follows: Pharmacokinetics in mice after single oral dosing (blood/plasma and liver exposure). Format: in vivo. As to conditions: 20 mg/kg single oral dose, time point 4 h. The procedure: The pharmacokinetics of the compounds was assessed in mice after single dosing and oral administrations. Blood/plasma and liver exposure was measured via LC-MS.
The study design was as follows: • Animals: C57/bl6/J (Janvier) males • Diet: standard rodent chow • Dose: 20 mg/kg • Animal handling: animals were withdrawn from food at least 12 h before administration • Design: single dose oral administration, n=3 animals per group • Sacrifice: at stated time point (4, 12 or 24 h) after administration • Bioanalytics: LC-MS of liver and blood/plasma samples

Data set [6] addresses T5, LXRβ (Homo sapiens, UniProt P55055).
T5 sequence (P55055 1-460): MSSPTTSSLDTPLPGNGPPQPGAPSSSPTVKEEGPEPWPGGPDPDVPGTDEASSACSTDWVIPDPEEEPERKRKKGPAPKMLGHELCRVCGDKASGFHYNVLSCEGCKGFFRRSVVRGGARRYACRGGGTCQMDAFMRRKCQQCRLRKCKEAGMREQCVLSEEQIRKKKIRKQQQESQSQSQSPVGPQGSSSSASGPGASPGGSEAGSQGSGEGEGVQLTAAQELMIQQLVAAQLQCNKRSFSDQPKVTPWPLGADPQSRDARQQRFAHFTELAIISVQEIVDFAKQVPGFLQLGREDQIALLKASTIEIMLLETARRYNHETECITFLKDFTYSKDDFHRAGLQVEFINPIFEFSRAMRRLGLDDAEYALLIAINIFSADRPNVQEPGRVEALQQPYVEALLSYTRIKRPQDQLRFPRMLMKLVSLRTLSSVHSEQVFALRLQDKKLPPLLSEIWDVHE
Briefly: LXR Gal4 reporter transient transfection assay (mammalian two-hybrid, HEK293), LXRβ. Format: cell-based. More on the design: LXRβ (amino acids 156-461); expressed in transfected cells; host or cells: HEK293. The following applies: full length (FL) LXRβ, HEK293; read-out: FL-M2H Gal4β. The procedure, abridged:
as §3

As for `Cc1cccc(S(=O)(=O)n2c(-c3cccc(N4CC(C(=O)O)C4)c3)c(-c3ccsc3C#N)c3cc(F)ccc32)c1` [3/8], the pEC50 is 6.00 to 7.00 in data set [1], above 7.00 in data set [2] and 5.00 to 6.00 in data set [3].

For `Cc1ccc(S(=O)(=O)n2c(-c3cccc(-c4cccc(C(=O)NS(C)(=O)=O)c4)c3)c(-c3ccsc3C#N)c3ccccc32)cc1` [Compound 32], the pEC50 in data set [1], in data set [2] and in data set [3] was 6.00 to 7.00 in each case.

For `COc1ccc(S(=O)(=O)n2c(-c3cccs3)c(-c3ccsc3C#N)c3ccccc32)cc1` [20/14], the values for the pEC50 in data set [1], in data set [2] and in data set [3] were above 7.00, above 7.00 and 6.00 to 7.00, respectively.

Turning to `N#Cc1sccc1-c1c(-c2cccs2)n(S(=O)(=O)c2ccc(Cl)cc2)c2ccc(OCC(=O)O)cc12` [Compound 15], the pEC50 in data set [1] was 5.00 to 6.00; in data set [2], below 5.00; in data set [3], below 5.00.

`N#Cc1sccc1-c1c(-c2cncs2)n(S(=O)(=O)c2ccc(Cl)cc2)c2ccccc12` [Compound 25]: the pEC50 in data set [1] was 6.00 to 7.00; in data set [2] it was above 7.00; in data set [3] it was 5.00 to 6.00.

With `O=S(=O)(c1ccc(Cl)cc1)n1c(-c2cccs2)c(-c2ccsc2Cl)c2ccccc21` [Compound 20], the pEC50 is above 7.00 in data set [1], above 7.00 in data set [2] and 6.00 to 7.00 in data set [3].

As for `N#Cc1sccc1-c1c(-c2cccs2)n(S(=O)(=O)c2ccc(Cl)cc2)c2ccc(C(=O)O)cc12` [Compound 23], the pEC50 in data set [1] was 6.00 to 7.00; in data set [2] it was 6.00 to 7.00; in data set [3], below 5.00.

Turning to `N#Cc1sccc1-c1c(-c2cccs2)n(S(=O)(=O)c2ccc(Cl)cc2)c2ccc(O)cc12` [Compound 13], the pEC50 in data set [1] was above 7.00; in data set [2], above 7.00; in data set [3] it was 6.00 to 7.00.

Take `Cc1ccc(S(=O)(=O)n2c(-c3cccc(-c4ccc(CN5CCN(C)CC5)cc4)c3)c(-c3ccsc3C#N)c3cc(F)ccc32)cc1` [Compound 8]: the pEC50 was 6.00 to 7.00 in data set [4], above 7.00 in data set [6] and 6.00 to 7.00 in data set [3]. In addition, in data set [5], the blood/plasma exposure result is recorded as “B (300 nM to ≤1 μM)”. In addition, the liver exposure result in data set [5] is “D (>3 μM)”. Also, the liver/blood ratio result in data set [5] was “B (3 to ≤10)”.

Turning to `Cc1ccc(S(=O)(=O)n2c(-c3cccc(C4CC4C(=O)O)c3)c(-c3ccsc3C#N)c3ccccc32)cc1` (stereo not drawn) [Compound 30], the figures for the pEC50 in data set [1], in data set [2] and in data set [3] were above 7.00, above 7.00 and 6.00 to 7.00, respectively.

Regarding `COc1ccc(S(=O)(=O)n2c(-c3ccc(CCC(N)=O)cc3)c(-c3ccsc3C#N)c3ccccc32)cc1` [Compound 28], the pEC50 in data set [1] is 5.00 to 6.00; in data set [2], 6.00 to 7.00; in data set [3] it was 5.00 to 6.00.
